In ChEMBL document CHEMBL3430912, “GSK Tres Cantos Anti-Kinetoplastid Screening (TCAKS) Data”:

Tests used:
Trypanosoma cruzi [1] = assay: (§1) GSK_TCAKS: pIC50 Trypanosoma cruzi Imaging: Infected Cells. […] Cells were then washed once with PBS before infection. T. cruzi trypomastigotes, collected at days 5 to 8 after infection from LLC-MK2 parasite infected cultures, were allowed to swim out for 4h at 37C from a centrifuged pellet (2,500 rpm/10 min/room temperature). Trypomastigotes were then collected and counted in a CASY Cell Counter. Trypomastigotes, in supplemented DMEM, were added to H9c2 cultures in a multiplicity of infection of 1 and incubated for 18 h. Cells were washed once with PBS before incubation of the infected H9c2 monolayer with trypsin (Life-Technologies) to detach cells from the flask. Cells were counted in a CASY Cell Counter using a 150 um capillary and their density set at 5 * 10^4 cells per mL in supplemented assay DMEM. Infected H9c2 were dispensed into 384-well poly-lysine coated assay plates at 50uL per well using a Multidrop Combi dispenser. After seeding them, the plates were incubated at 37C, 5% CO2 for 72h. Cultures were then fixed and stained by addition of 50 uL of a solution containing 8% formaldehyde and 4 uM DRAQ5 DNA dye (BioStatus, UK) per well. […] Five images were collected per well for reliable statistical analysis. Automated image analysis was performed with a script developed on Acapella High Content Imaging and Analysis Software (PerkinElmer). Output: percentage of infected cells per well as a second infection marker.; format: functional, organism-based, Rattus norvegicus; settings: H9c2, 4 h
Leishmania donovani [2] = assay: (§2) GSK_TCAKS: pIC50 Leishmania donovani Imaging: THP-1 Host Macrophages. Assay plates (384-well) were prepared by adding 250nL of compound to each well. For single shot assay, the final compound concentration was 5 uM. […] Automated image analysis was performed with a script developed on Acapella High Content Imaging and Analysis Software (PerkinElmer). Output: THP-1 cell count were reported for each well.; format: functional, organism-based, Homo sapiens
[3] = test system: Trypanosoma brucei brucei; assay: GSK_TCAKS: pIC50 Trypanosoma brucei viability assay using luminiscence. Assay plates (1536-well) were prepared. T. brucei cultures were harvested and counted in a CASY cell counter. A parasite suspension was prepared at a final concentration of 5 * 10^4 cells/mL in complete HMI9 medium and 6uL was dispensed to all wells containing compounds using a Multidrop Combi dispenser. 6uL of HMI9 media with 0.4% DMSO were dispensed to control columns. Plates were incubated for 24 h at 37C, 5% CO2 then tempered for 10 min at room temperature. ATP content was quantified by adding 4 uL of CellTiter-Glo Reagent (Promega) according to the manufacturer's instructions. Luminescence was measured using a ViewLux.; format: functional, organism-based; settings: Lister 427, CASY
Leishmania donovani [4] = assay: GSK_TCAKS: pIC50 Leishmania donovani viability assay using fluorescence intensity. Assay plates (1536-well) were prepared by adding 30nL per well of compound. For single shot assay, the final compound concentration was 5uM. […] Briefly, eGFP LdBOB axenic amastigotes were harvested, fixed and counted in a CASY cell counter (Roche-Applied Science). A final concentration of 1.5 * 10^5 cells per well were prepared in amastigote media containing 500 U/mL penicillin/streptomycin (Invitrogen) and 6uL was dispensed to each experimental well using a Multidrop Combi dispenser (Thermo Scientific). 6uL of assay media was dispensed to control columns used as reference for 100% compound response. Following incubation for 72 h at 37C, 5% CO2, 2 uL of resazurin was added to each well at a final concentration of 0.5 mM in phosphate buffered saline (PBS) with IGEPAL (Sigma-Aldrich), 0.05% (v/v).; format: functional, organism-based
[5] = GSK_TCAKS: pIC50 HepG2 human cell line viability assay using luminiscence. […] Seeding density was checked to ensure that new mono-layers were not more than 50% confluent at the time of harvesting. Cell suspension was added to 500 mL of the same medium at a final density of 1.2 * 10^5 cells/mL. This cell suspension was dispensed (25 uL, 3000 cells per well) into 384-well clear-bottom plates using a Multidrop Combi dispenser. Prior to addition of the cell suspension, the screening compounds (250 nL) were pre-dispensed into the plates with an Echo liquid handler. Plates were incubated for 48 h at 37C, 5% CO2. After incubation, plates equilibrated at room temperature for 30 min before proceeding to develop the luminescent signal. The signal developer, CellTiter-Glo Reagent, was allowed to equilibrate at room temperature for 30 min and added to the plates (25uL per well) using a Multidrop Combi dispenser. Plates were left for 10 min at room temperature for stabilization and then read using a ViewLux.; format: toxicity, cell-based
Leishmania donovani [6] = assay: as §2, with “Amastigotes/Macrophages.” for “THP-1 Host Macrophages.”, “Average number of amastigotes per macrophage” for “THP-1”, “cell” for “cell count”; format: functional, organism-based, Homo sapiens; settings: THP-1
Leishmania donovani [7] = assay: as §2, with “Infected” for “THP-1 Host”, “Percent of infected macrophage cells” for “THP-1 cell count”; format: functional, organism-based, Homo sapiens; settings: THP-1
Trypanosoma cruzi [8] = assay: GSK_TCAKS: pIC50 Trypanosoma cruzi Imaging: Amastigotes/Cell. […] Cells were then washed once with PBS before infection. T. cruzi trypomastigotes, collected at days 5 to 8 after infection from LLC-MK2 parasite infected cultures, were allowed to swim out for 4h at 37C from a centrifuged pellet (2,500 rpm/10 min/room temperature). Trypomastigotes were then collected and counted in a CASY Cell Counter. Trypomastigotes, in supplemented DMEM, were added to H9c2 cultures in a multiplicity of infection of 1 and incubated for 18 h. Cells were washed once with PBS before incubation of the infected H9c2 monolayer with trypsin (Life-Technologies) to detach cells from the flask. Cells were counted in a CASY Cell Counter using a 150 um capillary and their density set at 5 * 10^4 cells per mL in supplemented assay DMEM. Infected H9c2 were dispensed into 384-well poly-lysine coated assay plates at 50uL per well using a Multidrop Combi dispenser. After seeding them, the plates were incubated at 37C, 5% CO2 for 72h. Cultures were then fixed and stained by addition of 50 uL of a solution containing 8% formaldehyde and 4 uM DRAQ5 DNA dye (BioStatus, UK) per well. […] Five images were collected per well for reliable statistical analysis. Automated image analysis was performed with a script developed on Acapella High Content Imaging and Analysis Software (PerkinElmer). Output: number of amastigotes per cell as infection level measurement.; format: functional, organism-based, Rattus norvegicus; settings: H9c2, 4 h
Trypanosoma cruzi [9] = assay: GSK_TCAKS: pIC50 Trypanosoma cruzi viability assay using beta-GAL activity. This assay was run at single shot at 5uM compound concentration per well. The biological reagents consisted of NIH-3T3 host cells and trypomastigotes parasitic cells; both cell types were set to a 3.3 * 10^5 cells/mL dilution in assay DMEM by means of a CASY cell counter device using a 60um capillary. 6 uL of the mixture were dispensed per well (about 1 * 10^3 host-cells and 1 * 10^3 parasites) with a Multidrop Combi dispenser. […] In all wells, the percentage of DMSO never exceeded 0.5%. Plates incubated for four days at 37C, 5% CO2. The substrate used for the assay fluorescence intensity (FLINT) readout was resorufin-beta-D-galactopiranoside (Sigma-Aldrich) at 5uM per well. It was diluted in PBS supplemented with the soft detergent Igepal (Fluka).; format: functional, organism-based, Mus musculus; settings: Tulahuen, NIH3T3
[10] = biological target: Sterol 14-alpha demethylase (Trypanosoma cruzi (strain CL Brener), UniProt Q7Z1V1); assay: GSK_TCAKS: pIC50 CYP51 from Trypanosoma cruzi.; format: functional
Trypanosoma cruzi [11] = assay: as §1, with “H2C9” for “Trypanosoma cruzi”, “H9c2 Host Cardiomyocytes.” for “Infected Cells.”, “Number” for “percentage”, “H9c2 Host Cardiomyocytes nuclei to determine drug-related cytotoxicity.” for “infected cells per well as a second infection marker.”; format: functional, organism-based, Rattus norvegicus; settings: H9c2, 4 h
[12] = test system: Trypanosoma brucei brucei; assay: GSK_TCAKS: pIC50 Trypanosoma brucei viability assay using fluorescence intensity. Assay plates (1536-well) were prepared by dispensing 25nL of compound solution per well using an Echo acoustic dispenser (Labcyte).; format: functional, organism-based; settings: Lister 427, 2 h

Sterol 14-alpha demethylase, sequence (Q7Z1V1 whole entry): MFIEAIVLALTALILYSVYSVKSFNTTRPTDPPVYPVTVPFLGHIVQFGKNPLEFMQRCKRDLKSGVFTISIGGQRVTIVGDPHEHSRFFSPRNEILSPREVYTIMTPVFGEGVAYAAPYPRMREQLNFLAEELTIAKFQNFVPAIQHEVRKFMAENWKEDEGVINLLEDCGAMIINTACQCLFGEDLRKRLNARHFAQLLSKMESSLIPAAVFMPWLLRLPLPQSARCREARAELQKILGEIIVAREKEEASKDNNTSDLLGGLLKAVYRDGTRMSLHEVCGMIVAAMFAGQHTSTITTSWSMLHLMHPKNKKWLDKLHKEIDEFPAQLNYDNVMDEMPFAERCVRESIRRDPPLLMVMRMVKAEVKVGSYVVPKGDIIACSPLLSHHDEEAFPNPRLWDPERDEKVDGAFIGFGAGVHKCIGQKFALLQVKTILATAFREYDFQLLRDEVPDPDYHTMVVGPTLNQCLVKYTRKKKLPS

| Structure (SMILES) | IC50 (Trypanosoma cruzi [1]) [µM] | IC50 (Leishmania donovani [2]) [µM] | IC50 [3] [µM] | IC50 (Leishmania donovani [4]) [µM] | IC50 at 48 h [5] [µM] | IC50 (Leishmania donovani [6]) [µM] | IC50 (Leishmania donovani [7]) [µM] | IC50 (Trypanosoma cruzi [8]) [µM] | IC50 (Trypanosoma cruzi [9]) [µM] | IC50 [10] [µM] | IC50 (Trypanosoma cruzi [11]) [µM] | IC50 [12] [µM] |
| --- | --- | --- | --- | --- | --- | --- | --- | --- | --- | --- | --- | --- |
| Cc1cnc(Nc2cc(Cc3ccccc3)nc(N[C@H]3CC[C@H](O)CC3)n2)s1 | 0.126 | 0.0251 | 0.0398 | 0.794 | 25.1 | 0.0316 | 0.0398 | 0.0501 | 0.126 | > 100 | 0.0316 | 0.0251 |
| Cc1ccc(S(C)(=O)=O)cc1Nc1nccc(-c2sc(N)nc2-c2ccccc2)n1 | 0.126 | 20 | 1.58 | 3.16 | 31.6 | 2.51 | 5.01 | 0.0794 | 0.126 | > 100 | 5.01 | 0.794 |
| CC(C)C[C@H](NC(=O)c1ccc(-c2ccccc2)o1)C(=O)NC1(C#N)CC1 | > 50.1 | > 50.1 | 0.0501 | > 50.1 | > 100 | 15.8 | > 50.1 | 25.1 | 31.6 | > 100 | > 50.1 | 0.1 |
| CCOC(=O)c1noc(N)c1-c1ccccc1 | > 50.1 | > 50.1 | 0.631 | > 50.1 | > 100 | > 50.1 | > 50.1 | > 50.1 | > 50.1 | > 100 | > 50.1 | 0.631 |
| CC(C)C[C@H](NC(=O)c1csc(-c2cccs2)n1)C(=O)NC1(C#N)CC1 | > 50.1 | > 50.1 | 0.1 | 5.01 | > 100 | > 50.1 | > 50.1 | 20 | 25.1 | > 100 | > 50.1 | 0.158 |
| CN(C)S(=O)(=O)c1ccc(-c2cnc(N)c(-c3nc4ccc(F)cc4[nH]3)c2)cc1 | > 50.1 | 3.98 | 1 | 2.51 | > 100 | 0.631 | 1.58 | > 50.1 | 1.26 | 39.8 | 1.26 | 0.398 |
| Nc1cc(-c2ccc3ncnc(N4CCOCC4)c3c2)cnc1N | 5.01 | > 50.1 | 0.158 | 3.98 | > 100 | 1.26 | 10 | 1.58 | 1.58 | 79.4 | 3.16 | 0.0501 |
| NC(=O)c1cc(NC(=O)c2ccccc2COc2ccccc2)ccc1Cl | 31.6 | 15.8 | > 39.8 | 7.94 | > 100 | 1.58 | 3.16 | 25.1 | 39.8 | 79.4 | > 50.1 | 15.8 |
| CC(=O)Nc1cccc(Nc2ncnc3[nH]cnc23)c1 | 39.8 | 10 | 0.398 | > 50.1 | > 100 | 39.8 | > 50.1 | 25.1 | > 50.1 | > 100 | > 50.1 | 0.126 |
| COc1cccc(-c2c(C)nn(-c3nc(N)nc(-c4ccccn4)n3)c2N)c1 | 2 | > 50.1 | > 39.8 | 5.01 | > 100 | 1.58 | 2 | 0.501 | 2.51 | > 100 | > 50.1 | > 39.8 |
| CC(C)c1nn(-c2nc(N)nc(-c3ccccn3)n2)c(N)c1C1CCCCC1 | 1.26 | 5.01 | 7.94 | 7.94 | 20 | 0.794 | 1 | 1.26 | 2 | 3.16 | 3.16 | 7.94 |
| Cc1nn(-c2nc(N)nc(-c3ccccn3)n2)c(C)c1Cc1ccccc1 | 3.16 | > 50.1 | 6.31 | 5.01 | > 100 | 2.51 | 3.16 | 2 | 2.51 | 63.1 | 20 | > 39.8 |
| Cc1occc1C(=O)Nc1ccccc1C(=O)Nc1nccs1 | > 50.1 | > 50.1 | 0.501 | > 50.1 | > 100 | > 50.1 | > 50.1 | 31.6 | > 50.1 | > 100 | > 50.1 | 0.398 |
| COc1cccc(CN(C)Cc2nc(N)c3c(C)c(C)sc3n2)c1 | 15.8 | 31.6 | 3.98 | 31.6 | 39.8 | 3.16 | 5.01 | 15.8 | 6.31 | > 100 | > 50.1 | 5.01 |
| CC(C)Nc1nc(Cl)nc2ccccc12 | 10 | 20 | 12.6 | 20 | 39.8 | 1.26 | 2.51 | 3.98 | 3.98 | > 100 | 7.94 | 5.01 |
| Cc1cc2nc(CN(C)Cc3ncccc3C)[nH]c2cc1C | 1 | 7.94 | 0.631 | 5.01 | 39.8 | 0.501 | 0.631 | 0.501 | 0.501 | 79.4 | 12.6 | 0.631 |
| CC(C)(C)CC(=O)NCc1noc(COc2ccccc2)n1 | 2.51 | > 50.1 | 0.794 | > 50.1 | > 100 | > 50.1 | > 50.1 | 2.51 | 2.82 | 50.1 | > 50.1 | 0.631 |
| O=C(Cn1cnc2c(-c3ccccc3)csc2c1=O)N1CCCCC1 | 3.98 | > 50.1 | 1 | > 50.1 | > 100 | > 50.1 | > 50.1 | 3.16 | 3.55 | 39.8 | > 50.1 | 0.794 |
